{"source": "PubChem BioAssay AID1259409", "about": "(Chemical Carcinogenesis Research Information System (CCRIS), 2018)", "origin": "cited, not measured here", "system": "rodent chemically induced tumor inhibition, incidence and multiplicity", "assay": "CCRIS tumor inhibitor studies", "settings": "Carcinogen: 2,2'-DIHYDROXY-DI-N-PROPYLNITROSAMINE, 53609-64-6, 13147-25-6, Carcinogen: 2,2'-DIHYDROXY-DI-N-PROPYLNITROSAMINE, 53609-64-6, 13147-25-6, Dose [Inhibitor]: 0, Route [Inhibitor]: ORAL, Species: RAT, Strain/Sex: F344/MALE, Promoter: NONE USED"}
{"molecule": "O=C(OC[C@@H]1O[C@H](OC(=O)c2cc(O)c(O)c(OC(=O)c3cc(O)c(O)c(O)c3)c2)[C@@H](OC(=O)c2cc(O)c(O)c(OC(=O)c3cc(O)c(O)c(O)c3)c2)[C@H](OC(=O)c2cc(O)c(O)c(OC(=O)c3cc(O)c(O)c(O)c3)c2)[C@H]1OC(=O)c1cc(O)c(O)c(OC(=O)c2cc(O)c(O)c(O)c2)c1)c1cc(O)c(O)c(OC(=O)c2cc(O)c(O)c(O)c2)c1", "values": [{"measurement": "tumour outcome (control, treated, inhibition, significance)", "setting": "N-ETHYL-N-HYDROXYETHYL- NITROSAMINE, 3,2'-DIMETHYL-4-, N-ETHYL-N-HYDROXYETHYL- NITROSAMINE, 3,2'-DIMETHYL-4-, 1% IN DIET BEGINNING 1 WK POST LAST CARCINOGEN DOSE AND CONTINUING FOR 32 WK (STUDY DURATION: 36 WK), Target Tissue: Type of Lesion: LARGE INTESTINE: ADENOMA, Dose [Carcinogen]: 1000 MG/KG IP DHPN 2X, 1500 MG/KG GAV EHEN 2X AND 75 MG/KG SC DMAB GIVEN OVER THE INITIAL 3 WK PERIOD AT 3-4 D INTERVALS", "value": "7/14 (50%), 2/12 (17%), 66%, not calculated"}, {"measurement": "tumour outcome (control, treated, inhibition, significance)", "setting": "N-ETHYL-N-HYDROXYETHYL- NITROSAMINE, 3,2'-DIMETHYL-4-, N-ETHYL-N-HYDROXYETHYL- NITROSAMINE, 3,2'-DIMETHYL-4-, 1% IN DIET BEGINNING 1 WK POST LAST CARCINOGEN DOSE AND CONTINUING FOR 32 WK (STUDY DURATION: 36 WK), Target Tissue: Type of Lesion: LARGE INTESTINE: CARCINOMA, Dose [Carcinogen]: 1000 MG/KG IP DHPN 2X, 1500 MG/KG GAV EHEN 2X AND 75 MG/KG SC DMAB 3X GIVEN OVER THE INITIAL 3 WK AT 3-4 D INTERVALS", "value": "3/14 (21%), 1/12 (8%), 62%, not calculated"}, {"measurement": "tumour outcome (control, treated, inhibition, significance)", "setting": "N-ETHYL-N-HYDROXYETHYL- NITROSAMINE, 3,2'-DIMETHYL-4-, N-ETHYL-N-HYDROXYETHYL- NITROSAMINE, 3,2'-DIMETHYL-4-, 1% IN DIET BEGINNING 1 WK POST LAST CARCINOGEN DOSE AND CONTINUING FOR 32 WK (STUDY DURATION: 36 WK), Target Tissue: Type of Lesion: LUNG: ADENOMA, Dose [Carcinogen]: 1000 MG/KG IP DHPN 2X, 1500 MG/KG GAV EHEN 2X AND 75 MG/KG SC DMAB 3X GIVEN OVER THE INITIAL 3 WK AT 3-4 D INTERVALS", "value": "7/14 (50%), 7/12 (58%), -16%, not calculated"}, {"measurement": "tumour outcome (control, treated, inhibition, significance)", "setting": "N-ETHYL-N-HYDROXYETHYL- NITROSAMINE, 3,2'-DIMETHYL-4-, N-ETHYL-N-HYDROXYETHYL- NITROSAMINE, 3,2'-DIMETHYL-4-, 1% IN DIET BEGINNING 1 WK POST LAST CARCINOGEN DOSE AND CONTINUING FOR 32 WK (STUDY DURATION: 36 WK), Target Tissue: Type of Lesion: LUNG: CARCINOMA, Dose [Carcinogen]: 1000 MG/KG IP DHPN 2X, 1500 MG/KG GAV EHEN 2X AND 75 MG/KG SC DMAB 3X GIVEN OVER THE INITIAL 3 WK PERIOD AT 3-4 D INTERV", "value": "1/14 (7%), 2/12 (17%), -143%, not calculated"}, {"measurement": "tumour outcome (control, treated, inhibition, significance)", "setting": "N-ETHYL-N-HYDROXYETHYL- NITROSAMINE, 3,2'-DIMETHYL-4-, N-ETHYL-N-HYDROXYETHYL- NITROSAMINE, 3,2'-DIMETHYL-4-, 1% IN DIET BEGINNING 1 WK POST LAST CARCINOGEN DOSE AND CONTINUING FOR 32 WK (STUDY DURATION: 36 WK), Target Tissue: Type of Lesion: URINARY BLADDER: CARCINOMA, Dose [Carcinogen]: 1000 MG/KG IP DHPN 2X, 1500 MG/KG GAV EHEN 2X AND 75 MG/KG SC DMAB 3X GIVEN OVER THE INITIAL 3 WK PERIOD AT 3-4 D INTERV", "value": "1/14 (7%), 2/12 (17%), -143%, not calculated"}, {"measurement": "outcome", "setting": "N-ETHYL-N-HYDROXYETHYL- NITROSAMINE, 3,2'-DIMETHYL-4-, N-ETHYL-N-HYDROXYETHYL- NITROSAMINE, 3,2'-DIMETHYL-4-, 1% IN DIET BEGINNING 1 WK POST LAST CARCINOGEN DOSE AND CONTINUING FOR 32 WK (STUDY DURATION: 36 WK), Target Tissue: Type of Lesion: URINARY BLADDER: PAPILLOMA, Dose [Carcinogen]: 1000 MG/KG IP DHPN 2X, 1500 MG/KG GAV EHEN 2X AND 75 MG/KG SC DMAB 3X GIVEN OVER THE INITIAL 3 WK PERIOD AT 3-4 D INTERV", "value": "0/14 (0%), 3/12 (25%), -100%, not calculated"}, {"measurement": "tumour outcome (control, treated, inhibition, significance)", "setting": "N-ETHYL-N-HYDROXYETHYL- NITROSAMINE, 3,2-DIMETHYL-4-A, N-ETHYL-N-HYDROXYETHYL- NITROSAMINE, 3,2-DIMETHYL-4-A, 1% IN DIET BEGINNING 1 WK POST LAST CARCINOGEN DOSE AND CONTINUING FOR 32 WK (STUDY DURATION: 36 WK), Target Tissue: Type of Lesion: LIVER: HEPATOCELLULAR CARCINOMA, Dose [Carcinogen]: 100 MG/KG IP DHPN 2X, 1500 MG/KG GAV EHEN 2X AND 75 MG/KG SC DMAB 3X GIVEN OVER THE INITIAL 3 WK PERIOD AT 3-4 D INTERVA", "value": "6/14 (43%), 3/12 (25%), 42%, not calculated"}, {"measurement": "tumour outcome (control, treated, inhibition, significance)", "setting": "N-ETHYL-N-HYDROXYETHYLNITROSAMINE, 3,2'-DIMETHYL-1,4-, N-ETHYL-N-HYDROXYETHYLNITROSAMINE, 3,2'-DIMETHYL-1,4-, 1% IN DIET FOR 4 WK BEGINNING 1 D PRIOR TO FIRST CARCINOGEN DOSE (STUDY DURATION: 36 WK), Target Tissue: Type of Lesion: KIDNEY: ADENOMA, Dose [Carcinogen]: 1000 MG/KG BW DHPN TWICE, 1500 MG/KG THEN TWICE, 75 MG/KG BW DMAB 3 TIMES, SEQUENTIALLY OVER 3 WK", "value": "6/10 (60%), 6/12 (50%), 17%, not significant"}, {"measurement": "tumour outcome (control, treated, inhibition, significance)", "setting": "N-ETHYL-N-HYDROXYETHYLNITROSAMINE, 3,2'-DIMETHYL-1,4-, N-ETHYL-N-HYDROXYETHYLNITROSAMINE, 3,2'-DIMETHYL-1,4-, 1% IN DIET FOR 4 WK BEGINNING 1 D PRIOR TO FIRST CARCINOGEN DOSE (STUDY DURATION: 36 WK), Target Tissue: Type of Lesion: LUNG: ADENOMA, Dose [Carcinogen]: 1000 MG/KG BW DHPN TWICE, 1500 MG/KG THEN TWICE, 75 MG/KG BW DMAB 3 TIMES, SEQUENTIALLY OVER 3 WK", "value": "5/10 (50%), 7/12 (58%), -16%, not significant"}, {"measurement": "tumour outcome (control, treated, inhibition, significance)", "setting": "N-ETHYL-N-HYDROXYETHYLNITROSAMINE, 3,2'-DIMETHYL-4-AMINO-, N-ETHYL-N-HYDROXYETHYLNITROSAMINE, 3,2'-DIMETHYL-4-AMINO-, 1% IN DIET FOR 32 WK BEGINNING 1 WK POST CARCINOGEN TREATMENT (STUDY DURATION: 36 WK), Target Tissue: Type of Lesion: KIDNEY: NEPHROBLASTOMA, Dose [Carcinogen]: 1000 MG/KG BW DHPN TWICE, 1500 MG/KG BW THEN TWICE, 75 MG/KG BW DMAB 3 TIMES ADMINISTERED OVER FIRST 3 WK", "value": "2/14 (14%), 0/12 (0%), 100%, not significant"}]}
